# Source: patent publication US6806230B1, “Pyrimidine derivatives and herbicides containing them” (Kumiai Chemical Industry Co., Ltd., priority 1999, dated 2004)
# System: barnyard grass (Eo)
# Experiment: Test Example 1: herbicidal effects by flooded paddy field treatment;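 further: 0-5 growth inhibition grade; 5 = over 90%; 4 = 70-90%; 3 = 50-70%; 2 = 30-50%; 1 = 10-30%; 0 = under 10%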
# Type: in vivo
# Details: dose 100 gai/10a, examined on 21st day after treatment, index 0-5 per Table 44
# Method in brief: (§1)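 Dose: 100 g active ingredient per 10 ares as a diluted wettable powder dripped onto 3 cm floodwater, one day after sowing in puddled paddy soil. Scored by a standard rating scale 21 days later following greenhouse growth.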
row,Structure (SMILES),"Herbicidal effect index, Eo"
1,CC(C)C(c1cncnc1C(F)(F)F)N(C)C(=O)COc1ccc(Cl)cc1 (racemic) [Compound 1-65],5
2,Cc1ccc(CC(=O)N(C)C(c2cncnc2C(F)(F)F)C(C)C)cc1 (racemic) [Compound 1-23],5
3,CC(C)C(c1cncnc1C(F)(F)F)N(C)C(=O)Cc1cccc(Br)c1 (racemic) [Compound 1-70],5
4,CC(C)C(c1cncnc1C(F)(F)F)N(C)C(=O)Cc1ccc(Cl)c(Cl)c1 (racemic) [Compound 1-45],5
5,CCC(c1cncnc1C(F)(F)F)N(C)C(=O)Cc1ccc(F)cc1 (racemic) [Compound 1-33],5
6,Cc1cccc(CC(=O)N(C)C(c2cncnc2C(F)(F)F)C(C)C)c1 (racemic) [Compound 1-51],5
7,CC(C)C(c1cncnc1C(F)(F)F)N(C)C(=O)Cc1ccc(C#N)cc1 (racemic) [Compound 1-75],5
8,CC(C)Oc1ccc(CC(=O)N(C)C(c2cncnc2C(F)(F)F)C(C)C)cc1 (racemic) [Compound 1-97],5
9,CC(C)C(c1cncnc1C(F)(F)F)N(C)C(=O)COc1ccccc1 (racemic) [Compound 1-64],5

# System: monochoria (Mo)
# Experiment: as above
# Type: in vivo
# Details: dose 100 gai/10a, examined on 21st day after treatment, index 0-5 per Table 44
# Method in brief: as §1
row,Structure (SMILES),"Herbicidal effect index, Mo"
1,CC(C)C(c1cncnc1C(F)(F)F)N(C)C(=O)COc1ccc(Cl)cc1 (racemic) [Compound 1-65],5
2,Cc1ccc(CC(=O)N(C)C(c2cncnc2C(F)(F)F)C(C)C)cc1 (racemic) [Compound 1-23],5
3,CC(C)C(c1cncnc1C(F)(F)F)N(C)C(=O)Cc1cccc(Br)c1 (racemic) [Compound 1-70],5
4,CC(C)C(c1cncnc1C(F)(F)F)N(C)C(=O)Cc1ccc(Cl)c(Cl)c1 (racemic) [Compound 1-45],5
5,CCC(c1cncnc1C(F)(F)F)N(C)C(=O)Cc1ccc(F)cc1 (racemic) [Compound 1-33],5
6,Cc1cccc(CC(=O)N(C)C(c2cncnc2C(F)(F)F)C(C)C)c1 (racemic) [Compound 1-51],5
7,CC(C)C(c1cncnc1C(F)(F)F)N(C)C(=O)Cc1ccc(C#N)cc1 (racemic) [Compound 1-75],5
8,CC(C)Oc1ccc(CC(=O)N(C)C(c2cncnc2C(F)(F)F)C(C)C)cc1 (racemic) [Compound 1-97],5
9,CC(C)C(c1cncnc1C(F)(F)F)N(C)C(=O)COc1ccccc1 (racemic) [Compound 1-64],5

# System: barnyard grass (Ec)
# Experiment: Test Example 2: herbicidal effects by upland soil treatment;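 on herbicidal effects, Se (green foxtail): 0-5 growth inhibition grade; 5 = over 90%; 4 = 70-90%; 3 = 50-70%; 2 = 30-50%; 1 = 10-30%; 0 = under 10%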
# Type: in vivo
# Set-up: scale not given here
# Details: dose 100 g active ingredient per 10 ares, examined on the 21st day after treatment, standards of Table 44
# Method in brief: (§2)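 Pre-emergence test: barnyard grass and green foxtail sown in upland soil, then soil surface sprayed with wettable-powder formulation at 100 g active ingredient per 10 ares (100 l per 10 ares). Grown in greenhouse; herbicidal effect scored on a rating scale 21 days after treatment.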
row,Structure (SMILES),"herbicidal effects, Ec (barnyard grass)"
1,CC(C)C(c1cncnc1C(F)(F)F)N(C)C(=O)COc1ccc(Cl)cc1 (racemic) [Compound 1-65],5
2,Cc1ccc(CC(=O)N(C)C(c2cncnc2C(F)(F)F)C(C)C)cc1 (racemic) [Compound 1-23],5
3,CC(C)C(c1cncnc1C(F)(F)F)N(C)C(=O)Cc1cccc(Br)c1 (racemic) [Compound 1-70],5
4,CC(C)C(c1cncnc1C(F)(F)F)N(C)C(=O)Cc1ccc(Cl)c(Cl)c1 (racemic) [Compound 1-45],5
5,CCC(c1cncnc1C(F)(F)F)N(C)C(=O)Cc1ccc(F)cc1 (racemic) [Compound 1-33],5
6,Cc1cccc(CC(=O)N(C)C(c2cncnc2C(F)(F)F)C(C)C)c1 (racemic) [Compound 1-51],5
7,CC(C)C(c1cncnc1C(F)(F)F)N(C)C(=O)Cc1ccc(C#N)cc1 (racemic) [Compound 1-75],5
8,CC(C)Oc1ccc(CC(=O)N(C)C(c2cncnc2C(F)(F)F)C(C)C)cc1 (racemic) [Compound 1-97],5
9,CC(C)C(c1cncnc1C(F)(F)F)N(C)C(=O)COc1ccccc1 (racemic) [Compound 1-64],5

# System: green foxtail (Se)
# Experiment: as above
# Type: in vivo
# Details: dose 100 g active ingredient per 10 ares, examined on the 21st day after treatment, standards of Table 44
# Method in brief: as §2
row,Structure (SMILES),"herbicidal effects, Se (green foxtail)"
1,CC(C)C(c1cncnc1C(F)(F)F)N(C)C(=O)COc1ccc(Cl)cc1 (racemic) [Compound 1-65],5
2,Cc1ccc(CC(=O)N(C)C(c2cncnc2C(F)(F)F)C(C)C)cc1 (racemic) [Compound 1-23],5
3,CC(C)C(c1cncnc1C(F)(F)F)N(C)C(=O)Cc1cccc(Br)c1 (racemic) [Compound 1-70],5
4,CC(C)C(c1cncnc1C(F)(F)F)N(C)C(=O)Cc1ccc(Cl)c(Cl)c1 (racemic) [Compound 1-45],5
5,CCC(c1cncnc1C(F)(F)F)N(C)C(=O)Cc1ccc(F)cc1 (racemic) [Compound 1-33],5
6,Cc1cccc(CC(=O)N(C)C(c2cncnc2C(F)(F)F)C(C)C)c1 (racemic) [Compound 1-51],5
7,CC(C)C(c1cncnc1C(F)(F)F)N(C)C(=O)Cc1ccc(C#N)cc1 (racemic) [Compound 1-75],5
8,CC(C)Oc1ccc(CC(=O)N(C)C(c2cncnc2C(F)(F)F)C(C)C)cc1 (racemic) [Compound 1-97],5
9,CC(C)C(c1cncnc1C(F)(F)F)N(C)C(=O)COc1ccccc1 (racemic) [Compound 1-64],5

# System: barnyard grass (Eo)
# Experiment: Test Example 4: selectivity for a crop plant by flooded paddy field treatment
# Type: in vivo
# Set-up: scale not given here
# Details: dose 25 g active ingredient per 10 ares, examined on the 21st day after treatment
# Method in brief: (§3)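 Water-surface application in a greenhouse pot test: 25 g active ingredient per 10 ares, given as a diluted wettable powder one day after flooding, with visual rating of herbicidal effect three weeks post-treatment.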
row,Structure (SMILES),"Eo (herbicidal effects, index)"
1,Cc1ccc(CC(=O)N(C)C(c2cncnc2C(F)(F)F)C(C)C)cc1 (racemic) [Compound 1-23],5
2,CC(C)C(c1cncnc1C(F)(F)F)N(C)C(=O)Cc1ccc(Cl)c(Cl)c1 (racemic) [Compound 1-45],5
3,CCC(c1cncnc1C(F)(F)F)N(C)C(=O)Cc1ccc(F)cc1 (racemic) [Compound 1-33],5
4,Cc1cccc(CC(=O)N(C)C(c2cncnc2C(F)(F)F)C(C)C)c1 (racemic) [Compound 1-51],5
5,CC(C)Oc1ccc(CC(=O)N(C)C(c2cncnc2C(F)(F)F)C(C)C)cc1 (racemic) [Compound 1-97],5

# System: monochoria (Mo)
# Experiment: as above
# Type: in vivo
# Set-up: scale not given here
# Details: dose 25 g active ingredient per 10 ares, examined on the 21st day after treatment
# Method in brief: as §3
row,Structure (SMILES),"Mo (herbicidal effects, index)"
1,Cc1ccc(CC(=O)N(C)C(c2cncnc2C(F)(F)F)C(C)C)cc1 (racemic) [Compound 1-23],5
2,CC(C)C(c1cncnc1C(F)(F)F)N(C)C(=O)Cc1ccc(Cl)c(Cl)c1 (racemic) [Compound 1-45],5
3,CCC(c1cncnc1C(F)(F)F)N(C)C(=O)Cc1ccc(F)cc1 (racemic) [Compound 1-33],5
4,Cc1cccc(CC(=O)N(C)C(c2cncnc2C(F)(F)F)C(C)C)c1 (racemic) [Compound 1-51],5
5,CC(C)Oc1ccc(CC(=O)N(C)C(c2cncnc2C(F)(F)F)C(C)C)cc1 (racemic) [Compound 1-97],5

# System: rice (Or)
# Experiment: as above
# Type: in vivo
# Set-up: scale not given here
# Details: rice transplanted at second leaf stage, dose 25 g active ingredient per 10 ares, examined on the 21st day after treatment
# Method in brief: as §3
row,"Or (effect on crop plant rice, index)",Structure (SMILES)
1,1,Cc1ccc(CC(=O)N(C)C(c2cncnc2C(F)(F)F)C(C)C)cc1 (racemic) [Compound 1-23]
2,0,CC(C)C(c1cncnc1C(F)(F)F)N(C)C(=O)Cc1ccc(Cl)c(Cl)c1 (racemic) [Compound 1-45]
3,1,CCC(c1cncnc1C(F)(F)F)N(C)C(=O)Cc1ccc(F)cc1 (racemic) [Compound 1-33]
4,1,Cc1cccc(CC(=O)N(C)C(c2cncnc2C(F)(F)F)C(C)C)c1 (racemic) [Compound 1-51]
5,0,CC(C)Oc1ccc(CC(=O)N(C)C(c2cncnc2C(F)(F)F)C(C)C)cc1 (racemic) [Compound 1-97]

# System: barnyard grass (Ec)
# Experiment: Test Example 5: selectivity for a crop plant by soil treatment in upland field
# Type: in vivo
# Set-up: scale not given here
# Details: dose 25 gai/10a, 21st day after treatment, index per Table 44
# Experimental: (§4) In a 80 cm^2 plastic pot, upland soil was filled, and seeds of barnyard grass (Ec), green foxtail (Se), soybean (G1), wheat (Tr) and corn (Ze) were sown and covered with soil. A wettable powder prepared in accordance with Formulation Example 1 was diluted with water and uniformly applied to the soil surface by a small size spray at a rate of 100 l per 10 ares so that the dose of the active ingredient would be 25 g per 10 ares. Thereafter, cultivation was carried out in a green house, and on the 21st day after the treatment, the herbicidal effects were examined in accordance with the standards of Table 44.
row,Structure (SMILES),Ec (herbicidal effect index)
1,CC(C)C(c1cncnc1C(F)(F)F)N(C)C(=O)COc1ccc(Cl)cc1 (racemic) [Compound 1-65],5
2,Cc1ccc(CC(=O)N(C)C(c2cncnc2C(F)(F)F)C(C)C)cc1 (racemic) [Compound 1-23],5
3,CC(C)C(c1cncnc1C(F)(F)F)N(C)C(=O)Cc1cccc(Br)c1 (racemic) [Compound 1-70],5
4,CC(C)C(c1cncnc1C(F)(F)F)N(C)C(=O)Cc1ccc(Cl)c(Cl)c1 (racemic) [Compound 1-45],4
5,CCC(c1cncnc1C(F)(F)F)N(C)C(=O)Cc1ccc(F)cc1 (racemic) [Compound 1-33],4
6,Cc1cccc(CC(=O)N(C)C(c2cncnc2C(F)(F)F)C(C)C)c1 (racemic) [Compound 1-51],5
7,CC(C)C(c1cncnc1C(F)(F)F)N(C)C(=O)Cc1ccc(C#N)cc1 (racemic) [Compound 1-75],4
8,CC(C)Oc1ccc(CC(=O)N(C)C(c2cncnc2C(F)(F)F)C(C)C)cc1 (racemic) [Compound 1-97],4
9,CC(C)C(c1cncnc1C(F)(F)F)N(C)C(=O)COc1ccccc1 (racemic) [Compound 1-64],4

# System: corn (Ze)
# Experiment: as above
# Type: in vivo
# Set-up: scale not given here
# Details: dose 25 gai/10a, 21st day after treatment, index per Table 44
# Experimental: as §4
row,Structure (SMILES),Ze (herbicidal effect index on crop)
1,CC(C)C(c1cncnc1C(F)(F)F)N(C)C(=O)COc1ccc(Cl)cc1 (racemic) [Compound 1-65],0
2,Cc1ccc(CC(=O)N(C)C(c2cncnc2C(F)(F)F)C(C)C)cc1 (racemic) [Compound 1-23],1
3,CC(C)C(c1cncnc1C(F)(F)F)N(C)C(=O)Cc1cccc(Br)c1 (racemic) [Compound 1-70],1
4,CC(C)C(c1cncnc1C(F)(F)F)N(C)C(=O)Cc1ccc(Cl)c(Cl)c1 (racemic) [Compound 1-45],0
5,CCC(c1cncnc1C(F)(F)F)N(C)C(=O)Cc1ccc(F)cc1 (racemic) [Compound 1-33],1
6,Cc1cccc(CC(=O)N(C)C(c2cncnc2C(F)(F)F)C(C)C)c1 (racemic) [Compound 1-51],0
7,CC(C)C(c1cncnc1C(F)(F)F)N(C)C(=O)Cc1ccc(C#N)cc1 (racemic) [Compound 1-75],2
8,CC(C)Oc1ccc(CC(=O)N(C)C(c2cncnc2C(F)(F)F)C(C)C)cc1 (racemic) [Compound 1-97],0
9,CC(C)C(c1cncnc1C(F)(F)F)N(C)C(=O)COc1ccccc1 (racemic) [Compound 1-64],0

# System: soybean (G1)
# Experiment: as above
# Type: in vivo
# Set-up: scale not given here
# Details: dose 25 gai/10a, 21st day after treatment, index per Table 44
# Experimental: as §4
row,Structure (SMILES),Gl (herbicidal effect index on crop)
1,CC(C)C(c1cncnc1C(F)(F)F)N(C)C(=O)COc1ccc(Cl)cc1 (racemic) [Compound 1-65],0
2,CC(C)C(c1cncnc1C(F)(F)F)N(C)C(=O)Cc1cccc(Br)c1 (racemic) [Compound 1-70],1
3,CC(C)C(c1cncnc1C(F)(F)F)N(C)C(=O)Cc1ccc(Cl)c(Cl)c1 (racemic) [Compound 1-45],0
4,CCC(c1cncnc1C(F)(F)F)N(C)C(=O)Cc1ccc(F)cc1 (racemic) [Compound 1-33],0
5,Cc1cccc(CC(=O)N(C)C(c2cncnc2C(F)(F)F)C(C)C)c1 (racemic) [Compound 1-51],0
6,CC(C)C(c1cncnc1C(F)(F)F)N(C)C(=O)Cc1ccc(C#N)cc1 (racemic) [Compound 1-75],0
7,CC(C)Oc1ccc(CC(=O)N(C)C(c2cncnc2C(F)(F)F)C(C)C)cc1 (racemic) [Compound 1-97],3
8,CC(C)C(c1cncnc1C(F)(F)F)N(C)C(=O)COc1ccccc1 (racemic) [Compound 1-64],2

# System: wheat (Tr)
# Experiment: as above
# Type: in vivo
# Set-up: scale not given here
# Details: dose 25 gai/10a, 21st day after treatment, index per Table 44
# Experimental: as §4
row,Structure (SMILES),Tr (herbicidal effect index on crop)
1,CC(C)C(c1cncnc1C(F)(F)F)N(C)C(=O)COc1ccc(Cl)cc1 (racemic) [Compound 1-65],0
2,Cc1ccc(CC(=O)N(C)C(c2cncnc2C(F)(F)F)C(C)C)cc1 (racemic) [Compound 1-23],2
3,CC(C)C(c1cncnc1C(F)(F)F)N(C)C(=O)Cc1cccc(Br)c1 (racemic) [Compound 1-70],4
4,CC(C)C(c1cncnc1C(F)(F)F)N(C)C(=O)Cc1ccc(Cl)c(Cl)c1 (racemic) [Compound 1-45],2
5,CCC(c1cncnc1C(F)(F)F)N(C)C(=O)Cc1ccc(F)cc1 (racemic) [Compound 1-33],2
6,Cc1cccc(CC(=O)N(C)C(c2cncnc2C(F)(F)F)C(C)C)c1 (racemic) [Compound 1-51],1
7,CC(C)C(c1cncnc1C(F)(F)F)N(C)C(=O)Cc1ccc(C#N)cc1 (racemic) [Compound 1-75],3
8,CC(C)Oc1ccc(CC(=O)N(C)C(c2cncnc2C(F)(F)F)C(C)C)cc1 (racemic) [Compound 1-97],1
9,CC(C)C(c1cncnc1C(F)(F)F)N(C)C(=O)COc1ccccc1 (racemic) [Compound 1-64],3
